Measured values as given in US20210060118A1, “THERAPEUTIC HOMODIMER AND USES THEREOF” (priority 2014, published 2021).
Values joined by “and” are separate entries in the source; they are usually repeats but may differ in a detail not shown here. Identical values can stand only once. “Also recorded” adds a separate entry of the source. Like-named read-outs stand apart in the source and are kept apart here. Bridge positions count the residues as written; N and C are the ends. Peptide text beside a SMILES is read from it. I, II: the chains in the order shown.

Columns and labels:
[1] = tested on: human buccal tissue model
Experimental: (§1) A human buccal tissue model was used for in vitro testing of the permeability of a number of disulphide-linked homodimers.
(§2) Human oral mucosa tissue models were prepared in accordance with the standard protocols of a commercial reagent supplier (EpiOral™, MatTek Corporation; for details see http://www.mattek.com/epioral/applications/drug-delivery; see also for example Thakur et al., Drug Development and Industrial Pharmacy, 2007, 33(5), pages 513-52). In brief, the tissue models were prepared in tissue culture wells of 24-well plates containing an inner well (insert) with a microporous membrane base coated with an extracellular matrix preparation, on which the human mucosal cells were seeded. The inner well was submerged in the reagent supplier's recommended serum free culture medium which permeates through the microporous membrane to feed the cells in the insert. The cells were submerged in the culture medium for a few days, after insertion of the inner wells into the tissue culture wells and permeation of the culture medium into the inner wells, in accordance with the reagent supplier's recommendation. The inserts containing the developing tissues were then elevated to the air/liquid interface which induces stratification and differentiation. The resulting human buccal cell cultures were stratified, three dimensional tissues comprising 25-30 cell layers, non-cornified with nucleated cells extending up to the apical surface and with histology similar to that of native buccal tissue.
(§3) The buccal tissue culture inserts were transferred from the original tissue culture 24-well plates (maintained at 4° C. in sealed bags containing 5% CO2) under sterile conditions into wells of a fresh 24-well plate containing 1.0 ml of the reagent supplier's recommended serum free medium pre-warmed to 37° C. The plate was then incubated in a humidified incubator at 37° C. in a 5% CO2 atmosphere for one hour as a pre-equilibration procedure prior to dosing.
(§4) After removal of the pre-equilibrated plate from the incubator, any culture medium over the surface of the tissue was carefully removed and replaced with 100 μL of appropriately diluted homodimer solution in reagent supplier's recommended serum free culture medium (stock homodimer-containing medium). The plate was then incubated for a further 30 minutes at 37° C. in a 5% CO2 atmosphere. The plate was removed from the incubator and supernatant samples were taken from above the cells, inside the insert, and analysed by HPLC. The main peak areas for each tested peptide in the supernatants were compared to the corresponding peak areas for the tested peptides in the relevant pre-incubation samples of the stock homodimer-containing medium.

[2] = tested on: human buccal tissue model; assay: Human buccal tissue permeability screening (EpiOral tissue model, HPLC of supernatant); details: for Transmissibility (%): 30 minutes at 37° C.; for Peak Area by HPLC of Peptides in Solution, Post-overlay: supernatant above cells after 30 minutes at 37° C.
Experimental: as §1, §2, §3, §4

[3] = tested on: human diabetic patients; assay: Therapeutic efficacy testing in human diabetic patients (HbA1c); format: in vivo; details: for HbA1c % Change: day 35 vs baseline; for HbA1c % Baseline (Mean ± sd.): before first dose
Experimental: Homodimer C was tested in human clinical trials to determine therapeutic efficacy of transmucosal delivery. Both intraoral (sublingual) delivery and peroral delivery were tested. Two further groups of patients were administered an injectable preparation of Homodimer C to allow a comparison of the effects of transmucosal delivery to the effects of injection delivery.
Diabetic patients treated with oral anti-diabetic drugs (e.g. sulfonylurea type drugs) or insulin were recruited and randomised to four patient groups: two injectable peptide groups (Groups 1 and 2) and to two oral peptide dosage groups, for delivery of Homodimer C either by sublingual administration (Group 3) or via enteric coated capsules (Group 4).
Each group was administered five doses of Homodimer C. Homodimer C was administered once weekly (at days 0, 7, 14, 21 and 28 of the study) at a dose of 2 mg (which equates to approximately 0.03 mg/kg for a notional 70 kg subject) for all four groups. The homodimer injections were intramuscular, generally into the upper arm of the subjects. The patients' current treatment was not withdrawn during the study. HbA1c levels were determined in advance of the first dose and at day 35 of the study.

[4] = Table 1, stock homodimer-containing medium before incubation

## CC[C@H](C)[C@H](NC(=O)[C@H](CC(N)=O)NC(=O)[C@@H](N)CSSC[C@H](N)C(=O)N[C@@H](CC(N)=O)C(=O)N[C@H](C(=O)N[C@@H](Cc1ccc(O)cc1)C(=O)N1CCC[C@H]1C(=O)N[C@@H](CO)C(=O)N[C@@H](CC(=O)O)C(=O)N[C@@H](CO)C(=O)N[C@@H](Cc1ccc(O)cc1)C(=O)N[C@H](C(=O)N[C@@H](CC(N)=O)C(=O)N[C@@H](Cc1ccc(O)cc1)C(=O)N[C@@H](CC(N)=O)C(=O)N[C@@H](CCC(N)=O)C(=O)N[C@@H](CCCCN)C(=O)N[C@@H](Cc1ccccc1)C(=O)N[C@@H](CCCCN)C(=O)N[C@@H](CC(=O)O)C(=O)O)[C@@H](C)O)[C@@H](C)CC)C(=O)N[C@@H](Cc1ccc(O)cc1)C(=O)N1CCC[C@H]1C(=O)N[C@@H](CO)C(=O)N[C@@H](CC(=O)O)C(=O)N[C@@H](CO)C(=O)N[C@@H](Cc1ccc(O)cc1)C(=O)N[C@H](C(=O)N[C@@H](CC(N)=O)C(=O)N[C@@H](Cc1ccc(O)cc1)C(=O)N[C@@H](CC(N)=O)C(=O)N[C@@H](CCC(N)=O)C(=O)N[C@@H](CCCCN)C(=O)N[C@@H](Cc1ccccc1)C(=O)N[C@@H](CCCCN)C(=O)N[C@@H](CC(=O)O)C(=O)O)[C@@H](C)O [Homodimer A] (I: H-CNIYPSDSYTNYNQKFKD-OH / II: H-CNIYPSDSYTNYNQKFKD-OH; disulfide I:1-II:1; N-terminus and C-terminus assumed)
[1]
  Peak Area by HPLC of Peptides in Solution, Post-overlay: 4439
  Peak Area by HPLC of Peptides in Solution, Pre-overlay: 5398
  Transmissibility (%): 17.7%
  transmissibility (absorption) across the human buccal tissue surface, in words: only poor transmissibility

## CC(C)C[C@H](NC(=O)CNC(=O)[C@H](CCCNC(=N)N)NC(=O)[C@H](CC(C)C)NC(=O)[C@@H](N)CSSC[C@H](N)C(=O)N[C@@H](CC(C)C)C(=O)N[C@@H](CCCNC(=N)N)C(=O)NCC(=O)N[C@@H](CC(C)C)C(=O)N[C@@H](CC(C)C)C(=O)N1CCC[C@H]1C(=O)N[C@@H](CC(=O)O)C(=O)N[C@@H](Cc1ccc(O)cc1)C(=O)O)C(=O)N[C@@H](CC(C)C)C(=O)N1CCC[C@H]1C(=O)N[C@@H](CC(=O)O)C(=O)N[C@@H](Cc1ccc(O)cc1)C(=O)O [Homodimer B, reference compound] (I: H-CLRGLLPDY-OH / II: H-CLRGLLPDY-OH; disulfide I:1-II:1; N-terminus and C-terminus assumed)
[2]
  transmissibility (absorption) across the human buccal tissue surface, in words: did not demonstrate any transmissibility
[2]; Table 1
  Transmissibility (%): 0%
  Peak Area by HPLC of Peptides in Solution, Post-overlay: 2396
[2]; [4]
  Peak Area by HPLC of Peptides in Solution, Pre-overlay: 2023

## CC(C)C[C@H](NC(=O)[C@@H]1CCCN1C(=O)[C@H](Cc1ccc(O)cc1)NC(=O)[C@H](CO)NC(=O)[C@H](CC(N)=O)NC(=O)[C@H](Cc1ccc(O)cc1)NC(=O)[C@H](CCC(N)=O)NC(=O)[C@H](CCC(N)=O)NC(=O)[C@@H](N)CSSC[C@H](N)C(=O)N[C@@H](CCC(N)=O)C(=O)N[C@@H](CCC(N)=O)C(=O)N[C@@H](Cc1ccc(O)cc1)C(=O)N[C@@H](CC(N)=O)C(=O)N[C@@H](CO)C(=O)N[C@@H](Cc1ccc(O)cc1)C(=O)N1CCC[C@H]1C(=O)N[C@@H](CC(C)C)C(=O)N[C@H](C(=O)O)[C@@H](C)O)C(=O)N[C@H](C(=O)O)[C@@H](C)O [Homodimer C] (I: H-CQQYNSYPLT-OH / II: H-CQQYNSYPLT-OH; disulfide I:1-II:1; N-terminus assumed)
[2]
  transmissibility (absorption) across the human buccal tissue surface, in words: transmitted efficiently; also recorded: efficient uptake
[2]; Table 1
  Transmissibility (%): 94.1%
  Peak Area by HPLC of Peptides in Solution, Post-overlay: 243
[2]; [4]
  Peak Area by HPLC of Peptides in Solution, Pre-overlay: 4142
[2]; Table 2, triplicate cultures
  Transmissibility (%): 93.3% and 84.5% and 100%
[2]; Table 2, triplicate cultures, stock medium before incubation
  Peak Area by HPLC of Peptides in Solution, Pre-overlay: 4142
[3]; 2 mg once weekly x5
  efficacy of intraoral (sublingual) or peroral routes compared with parenteral (injection): significantly more effective
[3]; Group 1, intramuscular injection 2 mg once weekly x5, insulin only, P = 0.045
  HbA1c % Change: −0.60%
[3]; Group 1, intramuscular injection 2 mg once weekly x5, previous treatment insulin only, n = 17
  HbA1c % Day 35 (Mean ± sd.): 10.74 ± 2.0%
[3]; Group 1, intramuscular injection, previous treatment insulin only, n = 17
  HbA1c % Baseline (Mean ± sd.): 11.34 ± 2.6%
[3]; Group 2, intramuscular injection 2 mg once weekly x5, oral anti-diabetics and/or insulin, n = 18
  HbA1c % Day 35 (Mean ± sd.): 9.57 ± 1.79%
[3]; Group 2, intramuscular injection 2 mg once weekly x5, P = 0.033
  HbA1c % Change: −0.75%
[3]; Group 2, intramuscular injection, previous oral anti-diabetics and/or insulin, n = 18
  HbA1c % Baseline (Mean ± sd.): 10.32 ± 2.24%
[3]; Group 3, sublingual 2 mg once weekly x5, n = 7
  HbA1c % Day 35 (Mean ± sd.): 7.85 ± 2.03%
[3]; Group 3, sublingual 2 mg once weekly x5, P = 0.005
  HbA1c % Change: −1.33%
[3]; Group 3, sublingual, previous oral anti-diabetics and/or insulin, n = 7
  HbA1c % Baseline (Mean ± sd.): 9.18 ± 2.64%
[3]; Group 4, enteric coated capsule (peroral) 2 mg once weekly x5, n = 7
  HbA1c % Day 35 (Mean ± sd.): 8.12 ± 1.04%
[3]; Group 4, enteric coated capsule (peroral) 2 mg once weekly x5, P = 0.016
  HbA1c % Change: −1.18%
[3]; Group 4, enteric coated capsule (peroral), previous oral anti-diabetics and/or insulin, n = 7
  HbA1c % Baseline (Mean ± sd.): 9.30 ± 1.65%
[3]; doses of approximately 2 mg (approximately 0.03 mg/kg)
  side-effects in human patients: without significant undesirable side-effects
[3]; each of Groups 1-4
  mean HbA1c levels at day 35 relative to mean baseline, in words: significantly reduced
